From patent US11180474B2 (BRISTOL-MYERS SQUIBB COMPANY, priority 2016, dated 2021) come the findings set out here.

In one experiment the target is T1, human TLR9 (Homo sapiens, UniProt Q9NR96).
T1 construct: host or cells: HEK-Blue cells
T1 sequence (Q9NR96 26-1032): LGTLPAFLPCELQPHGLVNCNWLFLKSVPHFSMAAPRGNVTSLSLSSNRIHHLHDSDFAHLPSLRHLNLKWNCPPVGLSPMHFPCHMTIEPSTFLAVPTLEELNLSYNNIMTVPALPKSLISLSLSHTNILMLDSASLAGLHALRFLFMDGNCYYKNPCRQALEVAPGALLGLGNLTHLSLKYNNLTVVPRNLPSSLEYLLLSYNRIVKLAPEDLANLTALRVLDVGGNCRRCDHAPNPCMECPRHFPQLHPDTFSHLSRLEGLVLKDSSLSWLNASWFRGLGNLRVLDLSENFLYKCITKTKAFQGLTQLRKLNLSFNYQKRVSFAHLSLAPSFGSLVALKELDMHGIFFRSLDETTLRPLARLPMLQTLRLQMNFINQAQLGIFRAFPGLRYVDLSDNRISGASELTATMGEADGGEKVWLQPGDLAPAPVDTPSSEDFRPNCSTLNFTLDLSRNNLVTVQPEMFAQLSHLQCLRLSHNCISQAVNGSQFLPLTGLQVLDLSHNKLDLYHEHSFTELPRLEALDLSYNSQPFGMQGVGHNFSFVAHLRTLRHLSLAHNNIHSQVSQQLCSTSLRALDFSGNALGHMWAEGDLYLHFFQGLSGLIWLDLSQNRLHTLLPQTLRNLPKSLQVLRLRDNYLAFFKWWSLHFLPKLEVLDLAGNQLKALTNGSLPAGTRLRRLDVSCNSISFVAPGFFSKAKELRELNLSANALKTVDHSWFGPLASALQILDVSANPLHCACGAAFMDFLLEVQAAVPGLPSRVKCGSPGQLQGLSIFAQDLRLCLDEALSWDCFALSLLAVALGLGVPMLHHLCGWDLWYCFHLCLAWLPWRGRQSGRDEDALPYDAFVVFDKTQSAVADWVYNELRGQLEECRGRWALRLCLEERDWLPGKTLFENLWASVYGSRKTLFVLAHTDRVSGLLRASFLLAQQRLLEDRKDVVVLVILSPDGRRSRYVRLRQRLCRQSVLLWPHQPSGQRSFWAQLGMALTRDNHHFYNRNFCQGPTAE
Put plainly: TLR9 inhibition reporter assay (HEK-Blue cells, SEAP reporter, ODN2006 stimulation). Type of experiment: cell-based. To be noted: HEK-Blue cells overexpressing human TLR9, ODN2006 5 nM. The gist of the method:
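Human TLR7/8/9 HEK-Blue reporter lines; dose range 0.05 nM–50 μM; 30 min RT preincubation; stimulus gardiquimod 7.5 μM / R848 15.9 μM / ODN2006 5 nM respectively; 22 h, 37 °C; SEAP detected colorimetrically.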
For orientation: A reporter such as luciferase makes a cellular process visible.

The target in another experiment is T2, human TLR8 (Homo sapiens, UniProt Q9NR97).
T2 construct: host or cells: HEK-Blue cells
T2 sequence (Q9NR97 27-1041): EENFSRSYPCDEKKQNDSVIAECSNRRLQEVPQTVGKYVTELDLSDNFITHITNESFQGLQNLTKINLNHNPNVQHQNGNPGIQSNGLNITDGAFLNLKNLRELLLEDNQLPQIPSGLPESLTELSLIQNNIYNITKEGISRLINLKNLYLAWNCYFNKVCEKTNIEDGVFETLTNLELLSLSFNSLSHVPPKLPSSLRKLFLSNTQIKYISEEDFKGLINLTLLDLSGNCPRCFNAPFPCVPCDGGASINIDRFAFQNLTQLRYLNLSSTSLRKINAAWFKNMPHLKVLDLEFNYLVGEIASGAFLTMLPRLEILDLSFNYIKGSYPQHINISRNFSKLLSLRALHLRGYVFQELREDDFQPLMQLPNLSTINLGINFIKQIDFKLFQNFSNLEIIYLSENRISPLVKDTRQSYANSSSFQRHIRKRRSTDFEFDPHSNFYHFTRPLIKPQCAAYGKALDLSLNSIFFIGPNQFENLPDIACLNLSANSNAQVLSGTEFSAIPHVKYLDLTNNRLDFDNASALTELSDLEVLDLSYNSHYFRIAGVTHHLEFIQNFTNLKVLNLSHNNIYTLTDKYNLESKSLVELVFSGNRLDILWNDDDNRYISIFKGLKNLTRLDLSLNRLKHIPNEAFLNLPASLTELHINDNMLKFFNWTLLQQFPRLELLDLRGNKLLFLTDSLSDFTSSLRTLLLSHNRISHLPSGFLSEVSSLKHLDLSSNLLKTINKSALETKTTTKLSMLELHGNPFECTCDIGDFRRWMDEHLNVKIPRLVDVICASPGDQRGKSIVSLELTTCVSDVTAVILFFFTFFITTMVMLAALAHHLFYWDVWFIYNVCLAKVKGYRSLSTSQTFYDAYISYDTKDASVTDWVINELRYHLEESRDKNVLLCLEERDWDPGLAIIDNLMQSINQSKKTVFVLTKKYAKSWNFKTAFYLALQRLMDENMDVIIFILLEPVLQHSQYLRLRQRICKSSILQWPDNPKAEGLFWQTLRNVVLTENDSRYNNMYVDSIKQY
The experiment can be described thus: TLR8 inhibition reporter assay (HEK-Blue cells, SEAP reporter, R848 stimulation). It is filed as cell-based. The conditions noted are these: HEK-Blue cells overexpressing human TLR8, R848 15.9 μM. In a few lines:
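Cells (15000/well for TLR7, 20,000 for TLR8) were treated with compounds over 0.05 nM-50 μM final. After 22 h at 37° C, 5% CO2, SEAP was measured with HEK-Blue Detection reagent; percent inhibition was taken as reduction of agonist-plus-DMSO signal relative to a known inhibitor.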

On to `COc1ccc(-c2[nH]c3ccc(C4CCN(C(=O)CNC5CCC(C(C)(C)O)CC5)CC4)cc3c2C(C)C)cc1OC` (stereo not shown) [Example 245, 1-(4-(2-(3,4-dimethoxyphenyl)-3-isopropyl-1H-indol-5-yl)piperidin-1-yl)-2-((4-(2-hydroxypropan-2-yl)cyclohexyl)amino)ethan-1-one], for which the IC50 at human TLR9 was 1140 nM; against human TLR8, 26 nM.
`COc1ccc(-c2[nH]c3ccc(C4CCN(CC(=O)N5CCN(C)CC5)CC4)cc3c2C(C)C)cc1OC` [Example 274, 2-(4-(2-(3,4-dimethoxyphenyl)-3-isopropyl-1H-indol-5-yl)piperidin-1-yl)-1-(4-methylpiperazin-1-yl) ethan-1-one]: the IC50 against human TLR9 amounted to 829 nM; at human TLR8, 228 nM.
As to `CCC(CO)NCC(=O)N1CCC(c2ccc3[nH]c(-c4ccc(OC)c(OC)c4)c(C(C)C)c3c2)CC1` (stereo not shown) [Example 233, 1-(4-(2-(3,4-dimethoxyphenyl)-3-isopropyl-1H-indol-5-yl)piperidin-1-yl)-2-((1-hydroxybutan-2-yl)amino)ethan-1-one], the IC50 on human TLR9 amounted to 877 nM; against human TLR8, 27 nM.
The corresponding values for `COc1ccc(-c2[nH]c3ccc(C4CCN(C(=O)CN5CCC[C@H](C(=O)NCC(N)=O)C5)CC4)cc3c2C(C)C)cc1OC` [Example 298, (S)—N-(2-amino-2-oxoethyl)-1-(2-(4-(2-(3,4-dimethoxyphenyl)-3-isopropyl-1H-indol-5-yl)piperidin-1-yl)-2-oxoethyl)piperidine-3-carboxamide] are 3940 nM and 27 nM.
Turning to `COc1ccc(-c2[nH]c3ccc(C4CCN(CC(=O)NCCO)CC4)cc3c2C(C)C)cc1OC` [Example 276, 2-(4-(2-(3,4-dimethoxyphenyl)-3-isopropyl-1H-indol-5-yl)piperidin-1-yl)-N-(2-hydroxyethyl) acetamide], the IC50 is 3580 nM on human TLR9 and 27 nM against human TLR8.
Consider `COc1ccc(-c2[nH]c3ccc(C4CCN(C(=O)CN5CCC[C@@H](C(=O)N6CCC(N(C)C)CC6)C5)CC4)cc3c2C(C)C)cc1OC` [Example 305, (R)-1-(4-(2-(3,4-dimethoxyphenyl)-3-isopropyl-1H-indol-5-yl)piperidin-1-yl)-2-(3-(4-(dimethylamino)piperidine-1-carbonyl)piperidin-1-yl)ethan-1-one], for which the IC50 on human TLR9 is 561 nM; against human TLR8 it was 26 nM.
In the case of `COc1ccc(-c2[nH]c3ccc(C4CCN(Cc5cnc[nH]5)CC4)cc3c2C(C)C)cc1OC` [Example 268, 5-(1-((1H-imidazol-5-yl)methyl)piperidin-4-yl)-2-(3,4-dimethoxyphenyl)-3-isopropyl-1H-indole], the IC50 at human TLR9 is 1480 nM; at human TLR8 it was 15 nM.
Turning to `COc1ccc(-c2[nH]c3ccc(C4CCN(C(=O)CN5CCC[C@H](C(=O)NCC#N)C5)CC4)cc3c2C(C)C)cc1OC` [Example 297, (S)—N-(cyanomethyl)-1-(2-(4-(2-(3,4-dimethoxyphenyl)-3-isopropyl-1H-indol-5-yl)piperidin-1-yl)-2-oxoethyl)piperidine-3-carboxamide], the IC50 on human TLR9 is 3050 nM; against human TLR8, 19 nM.
On to `COc1ccc(-c2[nH]c3ccc(C4CCN(C(=O)CN5CCCC(CO)C5)CC4)cc3c2C(C)C)cc1OC` (stereo not shown) [Example 249, 1-(4-(2-(3,4-dimethoxyphenyl)-3-isopropyl-1H-indol-5-yl)piperidin-1-yl)-2-(3-(hydroxymethyl)piperidin-1-yl)ethan-1-one], for which the IC50 at human TLR9 worked out at 780 nM; against human TLR8 it was 17 nM.
Consider `COc1ccc(-c2[nH]c3ccc(C4CCN(CC(=O)N5CC[C@H](O)C5)CC4)cc3c2C(C)C)cc1OC` [Example 278, (S)-2-(4-(2-(3,4-dimethoxyphenyl)-3-isopropyl-1H-indol-5-yl)piperidin-1-yl)-1-(3-hydroxypyrrolidin-1-yl)ethan-1-one], for which the IC50 on human TLR9 is 2870 nM; on human TLR8, 11 nM.
Take `COc1ccc(-c2[nH]c3ccc(C4CCN(C(=O)CN(C)C(C)C)CC4)cc3c2C(C)C)cc1OC` [Example 227, 1-(4-(2-(3,4-dimethoxyphenyl)-3-isopropyl-1H-indol-5-yl)piperidin-1-yl)-2-(isopropyl(methyl)amino) ethan-1-one]: the IC50 on human TLR9 was found to be 1730 nM; against human TLR8, 24 nM.
For `COc1ccc(-c2[nH]c3ccc(C4CCN(Cc5nccn5C)CC4)cc3c2C(C)C)cc1OC` [Example 262, 2-(3,4-dimethoxyphenyl)-3-isopropyl-5-(1-((1-methyl-1H-imidazol-2-yl)methyl)piperidin-4-yl)-1H-indole], the IC50 stood at 2970 nM against human TLR9 and 23 nM at human TLR8.
Take `COc1ccc(-c2[nH]c3ccc(C4CCN(C(=O)CN5CCC[C@H](C(=O)N6CCC(CCO)CC6)C5)CC4)cc3c2C(C)C)cc1OC` [Example 291, (S)-1-(4-(2-(3,4-dimethoxyphenyl)-3-isopropyl-1H-indol-5-yl)piperidin-1-yl)-2-(3-(4-(2-hydroxyethyl)piperidine-1-carbonyl)piperidin-1-yl)ethan-1-one]: the IC50 on human TLR9 came out at 2310 nM; against human TLR8, 17 nM.
As for `COc1ccc(-c2[nH]c3ccc(C4CCN(C(=O)COC(C)C)CC4)cc3c2C(C)C)cc1OC` [Example 314, 1-(4-(2-(3,4-dimethoxyphenyl)-3-isopropyl-1H-indol-5-yl)piperidin-1-yl)-2-isopropoxyethan-1-one], the IC50 on human TLR9 stood at 26600 nM; at human TLR8, 657 nM.
For `COc1ccc(-c2[nH]c3ccc(C4CCN(C5CCN(C6CC6)CC5)CC4)cc3c2C)cc1OC` [Example 23, 5-(1′-cyclopropyl-[1,4′-bipiperidin]-4-yl)-2-(3,4-dimethoxyphenyl)-3-methyl-1H-indole], the IC50 is 154 nM at human TLR9 and 151 nM at human TLR8.
`COc1ccc(-c2[nH]c3ccc(C4CCN(C(=O)CN5CCC(O)CC5)CC4)cc3c2C(C)C)cc1OC` [Example 238, 1-(4-(2-(3,4-dimethoxyphenyl)-3-isopropyl-1H-indol-5-yl)piperidin-1-yl)-2-(4-hydroxypiperidin-1-yl) ethan-1-one]: the IC50 was 1420 nM on human TLR9 and 5 nM against human TLR8.
With `CCN(CC)C(=O)C1CCCN(C(=O)CN2CCC(c3ccc4[nH]c(-c5ccc(OC)c(OC)c5)c(C(C)C)c4c3)CC2)C1` (stereo not shown) [Example 272, 1-(2-(4-(2-(3,4-dimethoxyphenyl)-3-isopropyl-1H-indol-5-yl)piperidin-1-yl)acetyl)-N,N-diethylpiperidine-3-carboxamide], the IC50 at human TLR9 was 3400 nM; against human TLR8, 37 nM.

Usually IC50 stands for the concentration that gives 50% inhibition. A high value points to weaker potency in that assay.
